Assay results taken from the kinase profiling compilation of Christmann-Franck et al. (2016).
Where “and” joins values, the source holds several entries; their conditions need not be identical. Equal values may be shown once.

What was measured:
Assay in all cases: radiometric filter-binding kinase assay, Kinase HotSpot
Details in all cases: compound 0.5 µM; ATP 10 µM
ACVR1 (human) = ACVR1 (human) (UniProt Q04771)
DAPK2 (human) = DAPK2 (human) (UniProt Q9UIK4)
PRKCD (human) = PRKCD (human) (UniProt Q05655)
PHKG1 (human) = PHKG1 (human) (UniProt Q16816)
ABL1 (human) = ABL1 (human) (UniProt P00519)
TGFBR1 (human) = TGFBR1 (human) (UniProt P36897)
NUAK2 (human) = NUAK2 (human) (UniProt Q9H093)
RPS6KA6 KD1 KD2 (human) = RPS6KA6 KD1 KD2 (human) (UniProt Q9UK32)
Sequence of RPS6KA6 KD1 KD2 (human) (Q9UK32 whole entry, looked up): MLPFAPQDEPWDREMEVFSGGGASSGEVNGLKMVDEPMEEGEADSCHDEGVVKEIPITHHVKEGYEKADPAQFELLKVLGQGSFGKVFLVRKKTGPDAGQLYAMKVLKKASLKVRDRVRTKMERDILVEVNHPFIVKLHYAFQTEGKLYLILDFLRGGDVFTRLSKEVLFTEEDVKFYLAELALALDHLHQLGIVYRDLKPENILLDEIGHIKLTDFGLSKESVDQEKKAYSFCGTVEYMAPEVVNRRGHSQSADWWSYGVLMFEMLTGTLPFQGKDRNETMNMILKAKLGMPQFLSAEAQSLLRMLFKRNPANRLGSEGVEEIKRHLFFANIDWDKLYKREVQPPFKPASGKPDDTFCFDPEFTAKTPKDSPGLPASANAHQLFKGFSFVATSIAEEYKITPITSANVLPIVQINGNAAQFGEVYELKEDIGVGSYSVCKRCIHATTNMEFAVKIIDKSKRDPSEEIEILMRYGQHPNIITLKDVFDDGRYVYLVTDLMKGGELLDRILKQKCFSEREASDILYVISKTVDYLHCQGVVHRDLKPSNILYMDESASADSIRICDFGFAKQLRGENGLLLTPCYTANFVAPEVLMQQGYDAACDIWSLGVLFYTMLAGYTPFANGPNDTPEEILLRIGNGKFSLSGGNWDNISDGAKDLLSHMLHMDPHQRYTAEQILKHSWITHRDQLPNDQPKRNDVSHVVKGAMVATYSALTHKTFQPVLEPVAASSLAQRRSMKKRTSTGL

DSTYK (human) = DSTYK (human) (UniProt Q6XUX3)
STK16 (human) = STK16 (human) (UniProt O75716)
ADRBK1 (human) = ADRBK1 (human) (UniProt P25098)
CDC42BPB (human) = CDC42BPB (human) (UniProt Q9Y5S2)
NEK9 (human) = NEK9 (human) (UniProt Q8TD19)
Sequence of NEK9 (human) (Q8TD19 whole entry, looked up): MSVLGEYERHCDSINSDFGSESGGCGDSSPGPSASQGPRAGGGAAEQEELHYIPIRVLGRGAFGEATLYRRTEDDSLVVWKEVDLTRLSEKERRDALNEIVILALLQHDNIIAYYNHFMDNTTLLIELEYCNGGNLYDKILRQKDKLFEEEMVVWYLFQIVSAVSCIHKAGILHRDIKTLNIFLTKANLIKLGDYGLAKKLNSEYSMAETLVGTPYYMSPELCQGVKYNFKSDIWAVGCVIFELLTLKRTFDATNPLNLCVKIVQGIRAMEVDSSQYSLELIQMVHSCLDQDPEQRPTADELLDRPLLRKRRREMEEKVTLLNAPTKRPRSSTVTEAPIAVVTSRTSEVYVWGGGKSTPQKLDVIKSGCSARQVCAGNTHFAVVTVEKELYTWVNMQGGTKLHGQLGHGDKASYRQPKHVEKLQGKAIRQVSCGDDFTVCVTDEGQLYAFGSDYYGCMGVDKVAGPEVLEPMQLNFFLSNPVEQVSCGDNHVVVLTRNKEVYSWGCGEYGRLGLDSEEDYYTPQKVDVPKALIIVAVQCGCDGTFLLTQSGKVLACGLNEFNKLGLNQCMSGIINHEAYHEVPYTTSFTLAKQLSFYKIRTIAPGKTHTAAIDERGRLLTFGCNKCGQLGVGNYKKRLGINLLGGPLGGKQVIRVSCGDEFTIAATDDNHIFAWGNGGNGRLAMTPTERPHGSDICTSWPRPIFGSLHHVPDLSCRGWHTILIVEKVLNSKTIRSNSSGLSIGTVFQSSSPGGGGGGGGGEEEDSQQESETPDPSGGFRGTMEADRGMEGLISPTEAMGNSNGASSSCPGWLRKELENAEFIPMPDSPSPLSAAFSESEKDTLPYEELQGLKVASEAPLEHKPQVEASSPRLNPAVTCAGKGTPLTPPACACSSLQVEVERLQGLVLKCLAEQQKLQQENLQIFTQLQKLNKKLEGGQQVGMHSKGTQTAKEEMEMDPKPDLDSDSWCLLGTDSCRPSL

MET (human) = MET (human) (UniProt P08581)
Sequence of MET (human) (P08581 whole entry, looked up): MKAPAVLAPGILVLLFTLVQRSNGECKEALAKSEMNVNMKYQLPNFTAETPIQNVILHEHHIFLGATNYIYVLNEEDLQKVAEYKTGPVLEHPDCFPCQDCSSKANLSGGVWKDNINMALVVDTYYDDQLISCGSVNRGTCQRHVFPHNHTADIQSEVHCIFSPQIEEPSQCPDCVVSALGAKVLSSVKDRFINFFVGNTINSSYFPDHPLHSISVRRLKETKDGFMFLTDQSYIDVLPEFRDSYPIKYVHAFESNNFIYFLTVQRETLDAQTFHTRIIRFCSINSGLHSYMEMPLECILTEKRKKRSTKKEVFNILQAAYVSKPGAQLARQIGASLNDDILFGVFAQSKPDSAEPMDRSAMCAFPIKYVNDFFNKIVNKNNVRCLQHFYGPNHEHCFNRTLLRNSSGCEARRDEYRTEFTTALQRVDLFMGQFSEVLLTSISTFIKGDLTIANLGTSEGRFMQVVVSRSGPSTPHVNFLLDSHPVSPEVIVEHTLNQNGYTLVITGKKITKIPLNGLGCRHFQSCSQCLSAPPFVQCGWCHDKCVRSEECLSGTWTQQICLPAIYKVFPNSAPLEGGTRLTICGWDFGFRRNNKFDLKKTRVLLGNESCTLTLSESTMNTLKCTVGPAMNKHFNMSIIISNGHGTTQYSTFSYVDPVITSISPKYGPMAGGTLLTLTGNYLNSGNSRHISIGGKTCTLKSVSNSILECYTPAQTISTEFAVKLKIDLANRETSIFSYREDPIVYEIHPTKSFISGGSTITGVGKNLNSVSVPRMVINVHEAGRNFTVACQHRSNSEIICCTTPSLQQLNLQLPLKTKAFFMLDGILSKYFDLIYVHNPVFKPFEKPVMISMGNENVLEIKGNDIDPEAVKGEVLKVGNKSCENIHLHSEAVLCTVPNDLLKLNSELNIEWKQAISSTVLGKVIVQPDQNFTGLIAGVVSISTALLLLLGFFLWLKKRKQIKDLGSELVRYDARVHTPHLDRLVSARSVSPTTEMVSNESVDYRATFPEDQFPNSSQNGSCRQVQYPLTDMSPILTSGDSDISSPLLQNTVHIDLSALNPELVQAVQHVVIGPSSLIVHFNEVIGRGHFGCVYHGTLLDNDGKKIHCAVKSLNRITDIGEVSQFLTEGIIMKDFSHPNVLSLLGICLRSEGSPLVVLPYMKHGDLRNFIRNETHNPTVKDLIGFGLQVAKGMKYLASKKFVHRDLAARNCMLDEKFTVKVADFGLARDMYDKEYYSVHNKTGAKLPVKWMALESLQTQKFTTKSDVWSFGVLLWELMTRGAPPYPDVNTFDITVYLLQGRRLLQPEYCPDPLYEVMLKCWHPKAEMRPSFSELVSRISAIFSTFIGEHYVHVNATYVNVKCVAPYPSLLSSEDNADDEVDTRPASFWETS

NEK3 (human) = NEK3 (human) (UniProt P51956)
DYRK2 (human) = DYRK2 (human) (UniProt Q92630)
CDC42BPA (human) = CDC42BPA (human) (UniProt Q5VT25)
NEK6 (human) = NEK6 (human) (UniProt Q9HC98)
STK25 (human) = STK25 (human) (UniProt O00506)
CHEK1 (human) = CHEK1 (human) (UniProt O14757)
MAP3K9 (human) = MAP3K9 (human) (UniProt P80192)
PTK2 (human) = PTK2 (human) (UniProt Q05397)
ADRBK2 (human) = ADRBK2 (human) (UniProt P35626)
CAMK1G (human) = CAMK1G (human) (UniProt Q96NX5)
FGFR4 (human) = FGFR4 (human) (UniProt P22455)
EPHB4 (human) = EPHB4 (human) (UniProt P54760)
Sequence of EPHB4 (human) (P54760 whole entry, looked up): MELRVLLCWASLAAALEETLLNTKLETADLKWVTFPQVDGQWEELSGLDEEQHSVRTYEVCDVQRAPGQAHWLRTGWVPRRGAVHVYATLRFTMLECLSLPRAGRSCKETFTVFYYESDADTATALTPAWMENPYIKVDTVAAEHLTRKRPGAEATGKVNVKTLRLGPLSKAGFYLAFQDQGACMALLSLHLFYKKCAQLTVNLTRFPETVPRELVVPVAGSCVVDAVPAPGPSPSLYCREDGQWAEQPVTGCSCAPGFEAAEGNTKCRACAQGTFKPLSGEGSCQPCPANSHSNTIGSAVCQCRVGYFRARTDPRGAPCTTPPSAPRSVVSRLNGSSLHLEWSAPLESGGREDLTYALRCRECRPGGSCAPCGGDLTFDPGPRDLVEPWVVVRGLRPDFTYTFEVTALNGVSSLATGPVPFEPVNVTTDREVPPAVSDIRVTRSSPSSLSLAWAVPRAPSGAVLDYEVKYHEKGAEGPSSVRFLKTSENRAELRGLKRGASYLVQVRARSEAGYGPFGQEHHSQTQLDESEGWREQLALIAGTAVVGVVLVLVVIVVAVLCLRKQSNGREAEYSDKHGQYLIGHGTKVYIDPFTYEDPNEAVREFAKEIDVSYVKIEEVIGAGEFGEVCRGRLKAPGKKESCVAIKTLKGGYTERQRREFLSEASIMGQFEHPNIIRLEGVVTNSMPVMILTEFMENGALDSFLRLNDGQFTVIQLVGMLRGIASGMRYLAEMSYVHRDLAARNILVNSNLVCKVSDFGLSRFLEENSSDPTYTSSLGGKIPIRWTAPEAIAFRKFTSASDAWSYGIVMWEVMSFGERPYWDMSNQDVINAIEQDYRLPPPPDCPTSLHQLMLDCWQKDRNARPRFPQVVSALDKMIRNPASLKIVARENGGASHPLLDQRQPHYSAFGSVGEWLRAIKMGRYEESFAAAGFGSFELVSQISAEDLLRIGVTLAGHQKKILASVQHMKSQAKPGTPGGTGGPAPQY

SRMS (human) = SRMS (human) (UniProt Q9H3Y6)
IGF1R (human) = IGF1R (human) (UniProt P08069)
BRAF (human) = BRAF (human) (UniProt P15056)
LYN (human) = LYN (human) (UniProt P07948)
TEC (human) = TEC (human) (UniProt P42680)
IRAK4 (human) = IRAK4 (human) (UniProt Q9NWZ3)
Sequence of IRAK4 (human) (Q9NWZ3 whole entry, looked up): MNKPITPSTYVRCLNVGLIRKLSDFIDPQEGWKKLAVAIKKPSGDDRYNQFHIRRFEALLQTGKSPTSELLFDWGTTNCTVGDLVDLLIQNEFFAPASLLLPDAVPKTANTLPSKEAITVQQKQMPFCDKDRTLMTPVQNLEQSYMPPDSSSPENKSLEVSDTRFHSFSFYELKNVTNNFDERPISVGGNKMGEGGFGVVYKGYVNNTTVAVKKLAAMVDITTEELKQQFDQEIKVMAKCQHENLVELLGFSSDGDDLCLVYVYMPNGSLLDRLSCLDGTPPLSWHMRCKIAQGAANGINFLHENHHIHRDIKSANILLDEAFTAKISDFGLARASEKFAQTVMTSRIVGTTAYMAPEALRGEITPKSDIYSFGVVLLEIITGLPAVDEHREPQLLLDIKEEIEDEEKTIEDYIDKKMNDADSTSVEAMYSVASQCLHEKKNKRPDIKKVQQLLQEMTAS

EPHB3 (human) = EPHB3 (human) (UniProt P54753)
PHKG2 (human) = PHKG2 (human) (UniProt P15735)
LIMK1 (human) = LIMK1 (human) (UniProt P53667)
TSSK2 (human) = TSSK2 (human) (UniProt Q96PF2)
RAF1 (human) = RAF1 (human) (UniProt P04049)
PDGFRA (human) = PDGFRA (human) (UniProt P16234)

Sequence of DAPK2 (human) (Q9UIK4 whole entry, looked up): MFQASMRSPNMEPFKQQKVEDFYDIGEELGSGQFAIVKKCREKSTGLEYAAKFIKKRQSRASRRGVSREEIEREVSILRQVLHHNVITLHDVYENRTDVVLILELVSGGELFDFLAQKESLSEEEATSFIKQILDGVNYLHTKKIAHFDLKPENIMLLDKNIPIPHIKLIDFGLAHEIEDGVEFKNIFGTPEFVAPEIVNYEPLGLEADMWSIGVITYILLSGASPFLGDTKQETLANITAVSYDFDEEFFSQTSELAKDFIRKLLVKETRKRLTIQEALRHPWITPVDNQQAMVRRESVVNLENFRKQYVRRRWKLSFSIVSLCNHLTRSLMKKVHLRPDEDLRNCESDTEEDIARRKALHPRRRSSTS

CC[n+]1c(/C=C/N(C)c2ccccc2)n(-c2ccccc2)c2ccc(-c3nc4ccccc4s3)cc21
residual activity (ACVR1 (human)): 103% | residual activity (DAPK2 (human)): 94.3% | residual activity (PRKCD (human)): 93.3% | residual activity (PHKG1 (human)): 96.1% | residual activity (ABL1 (human)): 96.7% | residual activity (TGFBR1 (human)): 102% | residual activity (NUAK2 (human)): 93.3% | residual activity (RPS6KA6 KD1 KD2 (human)): 96% | residual activity (DSTYK (human)): 103% | residual activity (STK16 (human)): 98.4% | residual activity (ADRBK1 (human)): 87.5% | residual activity (CDC42BPB (human)): 95% | residual activity (NEK9 (human)): 108% | residual activity (MET (human)): 108% | residual activity (NEK3 (human)): 102% | residual activity (DYRK2 (human)): 105% | residual activity (CDC42BPA (human)): 102% | residual activity (NEK6 (human)): 96.1% | residual activity (STK25 (human)): 96.5% | residual activity (CHEK1 (human)): 103% | residual activity (MAP3K9 (human)): 98.3% | residual activity (PTK2 (human)): 108% | residual activity (ADRBK2 (human)): 97.4% | residual activity (CAMK1G (human)): 101% | residual activity (FGFR4 (human)): 84.1% | residual activity (EPHB4 (human)): 103% | residual activity (SRMS (human)): 93.7% | residual activity (IGF1R (human)): 93% | residual activity (BRAF (human)): 100% | residual activity (LYN (human)): 100% and 110% | residual activity (TEC (human)): 161% | residual activity (IRAK4 (human)): 173% | residual activity (EPHB3 (human)): 102% | residual activity (PHKG2 (human)): 102% | residual activity (LIMK1 (human)): 98.3% | residual activity (TSSK2 (human)): 98.4% | residual activity (RAF1 (human)): 96.8% | residual activity (PDGFRA (human)): 95.2%

Cc1ccc(NC2=CC(=O)c3sc(C)nc3C2=O)cc1
residual activity (ACVR1 (human)): 99.1% | residual activity (DAPK2 (human)): 91.9% | residual activity (PRKCD (human)): 104% | residual activity (PHKG1 (human)): 88.7% | residual activity (ABL1 (human)): 90.8% | residual activity (TGFBR1 (human)): 94.8% | residual activity (NUAK2 (human)): 105% | residual activity (RPS6KA6 KD1 KD2 (human)): 73.4% | residual activity (DSTYK (human)): 76.1% | residual activity (STK16 (human)): 91.7% | residual activity (ADRBK1 (human)): 96.6% | residual activity (CDC42BPB (human)): 109% | residual activity (NEK9 (human)): 99.4% | residual activity (MET (human)): 99.7% | residual activity (NEK3 (human)): 88.2% | residual activity (DYRK2 (human)): 109% | residual activity (CDC42BPA (human)): 77.6% | residual activity (NEK6 (human)): 106% | residual activity (STK25 (human)): 93.4% | residual activity (CHEK1 (human)): 91.1% | residual activity (MAP3K9 (human)): 86.7% | residual activity (PTK2 (human)): 102% | residual activity (ADRBK2 (human)): 84.5% | residual activity (CAMK1G (human)): 95% | residual activity (FGFR4 (human)): 86.7% | residual activity (EPHB4 (human)): 89.7% | residual activity (SRMS (human)): 82.4% | residual activity (IGF1R (human)): 92.2% | residual activity (BRAF (human)): 96.7% | residual activity (LYN (human)): 106% and 95.4% | residual activity (TEC (human)): 117% | residual activity (IRAK4 (human)): 124% | residual activity (EPHB3 (human)): 89.2% | residual activity (PHKG2 (human)): 96.3% | residual activity (LIMK1 (human)): 104% | residual activity (TSSK2 (human)): 98.3% | residual activity (RAF1 (human)): 90.5% | residual activity (PDGFRA (human)): 85.9%

CC#CC(=O)Nc1cc2c(Nc3ccc(F)c(Cl)c3)ncnc2cn1
residual activity (ACVR1 (human)): 105% | residual activity (DAPK2 (human)): 105% | residual activity (PRKCD (human)): 99.8% | residual activity (PHKG1 (human)): 103% | residual activity (ABL1 (human)): 97.8% | residual activity (TGFBR1 (human)): 98.7% | residual activity (NUAK2 (human)): 95.4% | residual activity (RPS6KA6 KD1 KD2 (human)): 95.3% | residual activity (DSTYK (human)): 91.1% | residual activity (STK16 (human)): 104% | residual activity (ADRBK1 (human)): 98.3% | residual activity (CDC42BPB (human)): 96.4% | residual activity (NEK9 (human)): 104% | residual activity (MET (human)): 96.3% | residual activity (NEK3 (human)): 76.2% | residual activity (DYRK2 (human)): 91.3% | residual activity (CDC42BPA (human)): 93.1% | residual activity (NEK6 (human)): 97.5% | residual activity (STK25 (human)): 97.1% | residual activity (CHEK1 (human)): 106% | residual activity (MAP3K9 (human)): 95.8% | residual activity (PTK2 (human)): 102% | residual activity (ADRBK2 (human)): 103% | residual activity (CAMK1G (human)): 99.2% | residual activity (FGFR4 (human)): 102% | residual activity (EPHB4 (human)): 83.4% | residual activity (SRMS (human)): 96.1% | residual activity (IGF1R (human)): 100% | residual activity (BRAF (human)): 82.1% | residual activity (LYN (human)): 88.3% and 96.1% | residual activity (TEC (human)): 52.1% | residual activity (IRAK4 (human)): 102% | residual activity (EPHB3 (human)): 85.4% | residual activity (PHKG2 (human)): 99% | residual activity (LIMK1 (human)): 84.2% | residual activity (TSSK2 (human)): 100% | residual activity (RAF1 (human)): 85.6% | residual activity (PDGFRA (human)): 94.9%
